The results in this text go back to US20230041980A1, “METHOD OF PROTECTING A RESPIRATORY TRACT OR A LUNG FROM DAMAGE, METHOD OF PROTECTING A LUNG FROM PRESSURE DAMAGE INDUCED BY A VENTILATOR, METHOD OF SUPPRESSING SPREAD OF INFECTION WITH VIRUSES OR BACTERIA THAT CAUSE PNEUMONIA IN PULMONARY BRONCHIAL EPITHELIAL CELLS OR ALVEOLAR EPITHELIAL CELLS, AND …” (NEXT21 KABUSHIKI KAISHA, priority 2020, published 2023).

The test system of experiment [1] is Asthma model mice. In words: Airway resistance and compliance of OVA asthma model mice. Type of experiment: in vivo, BALB/c mice. The conditions noted are these: versus amount of muscarine receptor stimulant, inhalation, compared with OVA/OVA. As for the experimental part: (§1) Asthma model mice were produced using BALB/c mice (8 to 10 weeks old) and ovalbumin (OVA) serving as an antigen, and examinations were conducted by administering trehalose by inhalation. On the first day and the fourteenth day, a physiological saline solution or OVA was intraperitoneally administered. 20 micrograms of OVA was administered to one mouse using aluminum hydroxide as an adjuvant. From the twenty-seventh day to the thirty-first day, 10% trehalose or distilled water was administered by inhalation for 20 minutes every day. Moreover, from the twenty-eighth day to the thirtieth day, a physiological saline solution or 1% OVA was administered by inhalation for 20 minutes, 1 to 1.5 hours after the above-mentioned inhalation. On the thirty-second day, evaluation was conducted using an assay system for evaluating allergic airway inflammation and hyperresponsive airway.
The airway resistance and the compliance of the model mice of Example 1 were measured. […] On the other hand, FIGS. 2A and 2B also show the results of the experiment in which lactose was used instead of trehalose (OVA/OVA+Lac).

The subject of experiment [2] is Asthma model mice. In words: Numbers of inflammation-inducing cells in bronchoalveolar lavage fluid. In kind it is in vivo, BALB/c mice. To be noted: inhalation; compared with OVA/OVA; FIG. 4. The protocol:
as §1, with “airway. Bronchoalveolar lavage was performed on the model mice of Example 1, and the numbers of various cells obtained through the bronchoalveolar lavage were compared and examined. It should be noted that, in this example, 0.5 mL of a physiological saline solution containing 50 μg of ovalbumin (OVA) and 1 mg of aluminum hydroxide gel serving as an adjuvant was administered to OVA-administration mice (OVA/OVA) […]. […]” for “airway.”

For the compound `OC[C@H]1O[C@@H](O[C@H]2[C@H](O)[C@@H](O)C(O)O[C@@H]2CO)[C@H](O)[C@@H](O)[C@H]1O` (stereo partly drawn) [lactose, reference compound], the airway resistance entry with Asthma model mice [1] (FIG. 2A) is recorded as “does not have an action of suppressing an increase in the airway resistance”. Also, the compliance result with Asthma model mice [1] (FIG. 2B) is “not different from each other”. Besides, the “numbers of inflammation-inducing cells in bronchoalveolar lavage fluid (Total, Mo, Ly, Eo, Nt)” value with Asthma model mice [2] is on record as “does not have an action of suppressing the release of inflammation-inducing cells”.
